In US9896470B2, “Enhancing the stability and purity and increasing the bioavailability of human milk oligosaccharides or precursors or blends thereof” (Glycom A/S, priority 2012, dated 2018):

What was measured:
Assay type in all cases: physicochemical
[1] = Stability test after two months (40° C., rel. humidity 75%)
Protocol: 75% of the methanol present in the feed solution was removed. […] Tg: 83.9° C.

[2] = Calorimetric (DSC) determination of glass transition temperature of the amorphous samples; conditions: for Tg (glass transition temperature): Perkin Elmer DSC-7, heating rate 10° C./min, spray-dried amorphous sample; for storage temperature limit suggested by Tg: spray-dried amorphous material
Protocol: The calorimetric experiments to determine the glass transition temperature of the amorphous samples were carried out using Perkin Elmer DSC-7 at a heating rate of 10° C./min; the samples (5-7 mg) were placed in open aluminium crucibles.

[3] = Shelf life of spray-dried material on storage; conditions: below 40° C. storage temperature

SMILES | stability test: changes in analytical data and powder X-ray diagram [1] | Tg (glass transition temperature) [2] [°C] | storage temperature limit suggested by Tg [2] | shelf life [3]
CC(=O)N[C@H]1[C@H](O[C@H]2[C@@H](O)[C@@H](CO)O[C@@H](O[C@H]3[C@H](O)[C@@H](O)C(O)O[C@@H]3CO)[C@@H]2O)O[C@H](CO)[C@@H](O[C@@H]2O[C@H](CO)[C@H](O)[C@H](O)[C@H]2O)[C@@H]1O (mixture of isomers) [spray-dried LNnT, Lacto-N-neotetraose] | no changes in the analytical data and powder X-ray diagram | 81.6 | around 60 °C | excellent shelf life
CC(=O)N[C@H]1[C@H]([C@H](O)[C@H](O)CO)O[C@@](OC[C@H]2O[C@@H](O[C@H]3[C@H](O)[C@@H](O)[C@H](O)O[C@@H]3CO)[C@H](O)[C@@H](O)[C@H]2O)(C(=O)O)C[C@@H]1O [spray-dried 6′-SL, 6′-O-sialyllactose] | – | 84.0 | around 60 °C | excellent shelf life
C[C@@H]1OC(O[C@H]2[C@H](O[C@H]3[C@H](O)[C@@H](O)C(O)O[C@@H]3CO)O[C@H](CO)[C@H](O)[C@@H]2O)[C@@H](O)[C@H](O)[C@@H]1O (some centres unmarked) [spray-dried 2′-FL, 2′-O-fucosyllactose] | no changes in the analytical data and powder X-ray diagram | 83.9 | around 60 °C | excellent shelf life
